From US20040043959A1, “Combination therapies for treating methylthioadenosine phosphorylase deficient cells” (priority 2002, published 2004)

Target: T1, Human MTAP (Homo sapiens, UniProt Q13126)
T1 construct: six-histidine tag (His6) (N); made in house; host or cells: E. coli BL21 DE3
T1 sequence (Q13126 1-283): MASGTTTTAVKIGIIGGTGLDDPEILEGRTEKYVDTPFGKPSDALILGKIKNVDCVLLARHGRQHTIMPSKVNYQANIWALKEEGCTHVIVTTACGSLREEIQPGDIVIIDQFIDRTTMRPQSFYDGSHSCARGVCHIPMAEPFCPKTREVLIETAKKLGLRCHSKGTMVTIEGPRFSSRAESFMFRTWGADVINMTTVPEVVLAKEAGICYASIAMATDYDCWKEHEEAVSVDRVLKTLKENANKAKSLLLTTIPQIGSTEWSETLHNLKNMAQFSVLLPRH
Experiment: MTAP substrate assay, coupled spectrophotometric (adenine, xanthine oxidase)
Type: biochemical
Details: 2 nM MTAP; for activity at 50 µM: 10 min, compound 50 uM, relative to MTA at 50 uM, read-out: MT-A—50: initial velocity as a percentage of the initial velocity with MTA as substrate; for MT-A—10: initial velocity as a percentage of the initial velocity with MTA as substrate: compound 10 uM, relative to MTA at 10 uM
Procedure: An enzymatic assay to determine the activity of MTAP against a given substrate was performed. Human MTAP containing an N-terminal six-histidine tag was expressed in E. coli BL21 DE3 cells. The protein was purified to homogeneity by Ni2+ affinity chromatography. Enzymatic activity was measured using a coupled spectrophotometric assay designed to monitor the reaction product adenine (Savarese, T. M., Crabtree, G. W., and Parks, R. E. Jr., (1980) Biochem. Pharmacol. 30, 189-199). Various concentrations of the indicated 5′-deoxymethylthio adenosine (MTA) or substrate were incubated in assay buffer (40 mM potassium phosphate buffer, 1 mM, and DTT 0.8 units/ml xanthine oxidase coupling enzyme) for 5 minutes at 37° C. The reaction was initiated by the addition of MTAP. The exact concentration of enzyme used varied for each substrate tested and ranged from 2 nM to 500 nM. Activity as a function of enzyme concentration was determined for each substrate tested to ensure that the appropriate enzyme concentration was used. Activity was detected by continuous monitoring of absorbance at 305 nm for 10 minutes (ΔE=15,500 M^−1).
Library compounds (10 and 50 uM) were tested using the assay described above with 2 nM MTAP enzyme. The resultant initial velocities are reported as a percentage of the initial velocity observed when MTA is the substrate. MTA controls, 10 and 50 uM concentrations, were run on each plate alongside the library compounds.

Row | SMILES | activity at 50 µM [%] | MT-A—10: initial velocity as a percentage of the initial velocity with MTA as substrate [%]
1 | CC(C)SC[C@H]1O[C@@H](n2cnc3c(N)ncnc32)[C@H](O)[C@@H]1O [2(G)(45), (2R, 3R, 4S, 5S)-2-(6-amino-9H-purin-9-yl)-5-[(isopropylthio)methyl]-tetrahydrofuran-3,4-diol] | 57 | 53
2 | Cc1cccc(C)c1SC[C@H]1O[C@@H](n2cnc3c(N)ncnc32)[C@H](O)[C@@H]1O [2(G)(22), (2R, 3R, 4S, 5S)-2-(6-amino-9H-purin-9-yl)-5-{[(2,6-dimethylphenyl)-thio]methyl}tetrahydro-furan-3,4-diol] | 15 | 3
3 | Nc1ncnc2c1ncn2[C@@H]1O[C@H](CSc2ccc(Br)cc2)[C@@H](O)[C@H]1O [2(G)(17), (2R, 3R, 4S, 5S)-2-(6-amino-9H-purin-9-yl)-5-{[(4-bromophenyl)-thio]methyl}tetrahydro-furan-3,4-diol] | 17 | 21
4 | CCCSc1ccc2[nH]c(SC[C@H]3O[C@@H](n4cnc5c(N)ncnc54)[C@H](O)[C@@H]3O)nc2c1 [2(G)(7), (2R, 3R, 4S, 5S)-2-(6-amino-9H-purin-9-yl)-5-({[5-(propylthio)-1H-benzimidazol-2-yl]thio}methyl)tetrahydro-furan-3,4-diol] | 0 | 3
5 | Cc1cccc2[nH]c(SC[C@H]3O[C@@H](n4cnc5c(N)ncnc54)[C@H](O)[C@@H]3O)nc12 [2(G)(46), (2R, 3R, 4S, 5S)-2-(6-amino-9H-purin-9-yl)-5-{[(4-methyl-1H-benzimidazol-2-yl)-thio]methyl}tetrahydro-furan-3,4-diol] | 45 | 42
6 | Cn1c(O)nnc1SC[C@H]1O[C@@H](n2cnc3c(N)ncnc32)[C@H](O)[C@@H]1O [2(G)(31), (2R, 3R, 4S, 5S)-2-(6-amino-9H-purin-9-yl)-5-{[(5-hydroxy-4-methyl-4H-1,2,4-triazol-3-yl)-thio]methyl}tetrahydro-furan-3,4-diol] | 50 | 46
7 | C=CCSC[C@H]1O[C@@H](n2cnc3c(N)ncnc32)[C@H](O)[C@@H]1O [2(G)(44), (2R, 3R, 4S, 5S)-2-(6-amino-9H-purin-9-yl)-5-[(allythio)methyl]tetra-hydrofuran-3,4-diol] | 82 | 77
8 | COC(=O)CSC[C@H]1O[C@@H](n2cnc3c(N)ncnc32)[C@H](O)[C@@H]1O [2(G)(54), methyl ({[(2S, 3S, 4R, 5R)-5-(6-amino-9H-purin-9-yl)-3,4-dihydroxy-tetrahydrofuran-2-yl]methyl}thio)acetate] | 44 | 36
9 | COc1ccc(SC[C@H]2O[C@@H](n3cnc4c(N)ncnc43)[C@H](O)[C@@H]2O)cc1OC [2(G)(25), (2R, 3R, 4S, 5S)-2-(6-amino-9H-purin-9-yl)-5-{[(3,4-dimethoxyphenyl)-thio]methyl}tetrahydro-furan-3,4-diol] | 30 | 5
10 | Cc1ccc2[nH]c(SC[C@H]3O[C@@H](n4cnc5c(N)ncnc54)[C@H](O)[C@@H]3O)nc2c1 [2(G)(48), (2R, 3R, 4S, 5S)-2-(6-amino-9H-purin-9-yl)-5-{[(5-methyl-1H-benzimidazol-2-yl)thio]-methyl}tetrahydro-furan-3,4-diol] | 5 | 3

More lines, now with the values ahead:

Row | activity at 50 µM [%] | MT-A—10: initial velocity as a percentage of the initial velocity with MTA as substrate [%] | SMILES
11 | 7 | 7 | Nc1ncnc2c1ncn2[C@@H]1O[C@H](CSc2ccc(C(=O)O)cc2)[C@@H](O)[C@H]1O [2(G)(95), 4-({[(2S, 3S, 4R, 5R)-5-(6-amino-9H-purin-9-yl)-3,4-dihydroxytetrahydro-furan-2-yl]methyl}thio)-benzoic acid]
12 | 11 | 11.5 | Nc1ncnc2c1ncn2[C@@H]1O[C@H](CSc2cc(Cl)cc(Cl)c2)[C@@H](O)[C@H]1O [2(G)(131), (2R, 3R, 4S, 5S)-2-(6-amino-9H-purin-9-yl)-5-{[(3,5-dichlorophenyl)-thio]methyl}tetrahydro-furan-3,4-diol]
13 | 10 | 17 | Nc1ncnc2c1ncn2[C@@H]1O[C@H](CSc2nccc(-c3ccco3)n2)[C@@H](O)[C@H]1O [2(G)(112), (2R, 3R, 4S, 5S)-2-(6-amino-9H-purin-9-yl)-5-({[4-(2-furyl)pyrimidin-2-yl]thio}methyl)tetrahydro-furan-3,4-diol]
14 | 3 | 6 | Nc1ncnc2c1ncn2[C@@H]1O[C@H](CSc2ccccc2Br)[C@@H](O)[C@H]1O [2(G)(70), (2R, 3R, 4S, 5S)-2-(6-amino-9H-purin-9-yl)-5-{[(2-bromophenyl)-thio]methyl}tetrahydro-furan-3,4-diol]
15 | 33 | 25 | CCOC(=O)CSC[C@H]1O[C@@H](n2cnc3c(N)ncnc32)[C@H](O)[C@@H]1O [2(G)(88), ethyl ({[(2S, 3S, 4R, 5R)-5-(6-amino-9H-purin-9-yl)-3,4-dihydroxytetrahydro-furan-2-yl]methyl}thio)acetate]
16 | 58 | 1.5 | CCCCCCCCSC[C@H]1O[C@@H](n2cnc3c(N)ncnc32)[C@H](O)[C@@H]1O [2(G)(142), (2R, 3R, 4S, 5S)-2-(6-amino-9H-purin-9-yl)-5-[(octylthio)methyl]tetra-hydrofuran-3,4-diol]
17 | 10.5 | 11 | Nc1ncnc2c1ncn2[C@@H]1O[C@H](CSc2ccc(Cl)c(Cl)c2)[C@@H](O)[C@H]1O [2(G)(128), (2R, 3R, 4S, 5S)-2-(6-amino-9H-purin-9-yl)-5{[(3,4-dichlorophenyl)-thio]methyl}tetrahydro-furan-3,4-diol]
18 | 6 | 3 | CCCC(CCO)SC[C@H]1O[C@@H](n2cnc3c(N)ncnc32)[C@H](O)[C@@H]1O (stereo partly drawn) [2(G)(77)]
19 | 2 | 4 | COC(=O)c1ccccc1SC[C@H]1O[C@@H](n2cnc3c(N)ncnc32)[C@H](O)[C@@H]1O [2(G)(107), methyl 2-({[(2S, 3S, 4R, 5R)-5-(6-amino-9H-purin-9-yl)-3,4-dihydroxy-tetrahydrofuran-2-yl]-methyl}thio)-benzoate]
20 | 2.5 | 35.5 | Cc1ccc(SC[C@H]2O[C@@H](n3cnc4c(N)ncnc43)[C@H](O)[C@@H]2O)c(C)c1 [2(G)(149), (2R, 3R, 4S, 5S)-2-(6-amino-9H-purin-9-yl)-5-{[(2,4-dimethylphenyl)-thio]methyl}tetrahydro-furan-3,4-diol]
21 | 18 | 17 | Nc1ncnc2c1ncn2[C@@H]1O[C@H](CSc2cccc(C(F)(F)F)c2)[C@@H](O)[C@H]1O [2(G)(99), (2R, 3R,4S, 5S)-2-(6-amino-9H-purin-9-yl)-5-({[3-(trifluoromethyl)-phenyl]thio}methyl)-tetrahydrofuran-3,4-diol]
22 | 11 | 14 | Nc1ncnc2c1ncn2[C@@H]1O[C@H](CSCc2ccc(Cl)cc2Cl)[C@@H](O)[C@H]1O [2(G)(76), (2R, 3R, 4S, 5S)-2-(6-amino-9H-purin-9-yl)-5-{[(2,4-dichlorobenzyl)-thio]methyl}tetrahydro-furan-3,4-diol]
23 | 26 | 39 | Cc1cc(C)nc(SC[C@H]2O[C@@H](n3cnc4c(N)ncnc43)[C@H](O)[C@@H]2O)n1 [2(G)(154), (2R, 3R, 4S, 5S)-2-(6-amino-9H-purin-9-yl)-5-{[(4,6-dimethyl-pyrimidin-2-yl)thio]methyl}tetrahydrofuran-3,4-diol]
24 | 5 | 5 | Nc1ncnc2c1ncn2[C@@H]1O[C@H](CSc2ccccc2[N+](=O)[O-])[C@@H](O)[C@H]1O [2(G)(91), (2R, 3R, 4S, 5S)-2-(6-amino-9H-purin-9-yl)-5-{[(2-nitrophenyl)thio]-methyl}tetrahydrofuran-3,4-diol]
